# Laboratory results as given in US20230174649A1, “PHARMACEUTICAL COMPOSITIONS CONTAINING ANTI-CD47 ANTIBODIES” (I-MAB BIOPHARMA US LIMITED, priority 2020, published 2023).
# Where “and” joins values, the source holds several entries; their conditions need not be identical. Equal entries are not always repeated.
# Columns and labels:
# [1] = test system: macrophages; test: Macrophage Viability Assay (CellTiter-Glo); assay type: cell-based, Human; settings: for Macrophage viability (CellTiter-Glo Luminescent Cell Viability Assay): 16 hours, three replicate lines
# In short: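 Human monocytes (MACS-isolated) were differentiated 6 days with GM-CSF (50 ng/ml) and IL-4 (35 ng/ml), plated at 0.05×10^6 cells/well and allowed 2 h to attach. Compounds were co-cultured for 16 h. Viability was read by CellTiter-Glo luminescence.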
# [2] = test system: CD47; test: FACS analysis of expression level of CD47 on tumor cell surface; assay type: cell-based, Human; settings: Toledo cells; for Mean Fluorescence Intensity (MFI) CD47: 12 hours
# In short: (§1)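 Surface calreticulin and CD47 were measured by flow cytometry after 30 min antibody staining at 4° C in the dark. The Toledo cells had been seeded at 0.2×10^6 cells/well and exposed to test agents for 12 hours beforehand.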
# [3] = test system: Calreticulin; test: FACS analysis of expression level of calreticulin on tumor cell surface; assay type: cell-based, Human; settings: Toledo cells; for Mean Fluorescence Intensity (MFI) Calreticulin: 12 hours
# In short: as §1
# [4] = test system: HL-60 cells; test: Anti-tumor efficacy in subcutaneous HL-60 xenograft model; assay type: in vivo, female NOG mice; settings: for antitumor activity compared with the control group: day 12; for Tumor volume / Tumor Size (mm^3) at day 12, Mean ± SEM: listed as AZA
# Description: HL-60 cells (a human promyelocytic leukemia cell line, ATCC® cat #CCL-240) were maintained in suspension culture in complete cell growth medium at 37° C. in an atmosphere with 5% CO2. The cells were split twice a week to maintain an exponential growth. After culturing, cells were harvested and counted for tumor inoculation.
# To establish the xenograft model, HL-60 cells (10×10^6) were suspended in 0.2 mL of PBS with the same volume of Matrigel and subcutaneously injected into the right flank of each mouse. When tumor volume reaches a mean value of approximately 72 mm^3, i.e., on day 6 after inoculation, mice were divided into several groups and treated with PBS (control group), anti-CD47 antibody (i.e., T4J), AZA, or a combination of T4J and AZA, respectively.
# At the time of routine monitoring, the animals were daily checked for any effects of tumor growth and treatments on normal behavior such as mobility, food and water consumption (by looking only), body weight gain/loss (body weights were measured twice a week), eye/hair matting and any other abnormal effects. Death and observed clinical signs were recorded.
# Tumor size was measured twice a week in two dimensions using a caliper, and the volume was calculated using the formula: Volume (V)=(L×W×W)/2, where L is tumor length (the longest tumor dimension) and W is tumor width (the longest tumor dimension perpendicular to L). The tumor volume was then used for calculating T/C values. The T/C value (in percentage) is an indicator of antitumor effectiveness, in which T and C are the mean volumes of the treatment group and the control groups, respectively.
# The percentage of tumor growth inhibition (TGI) was calculated for each group as follows: 100%×(1−[(Vtreated(^final day)−Vtreated(^initial day))/Vcontrol(^final day)−Vcontrol(^initial day)))], where V is the tumor volume.
# Tumor body weight was measured at the end of the study. T/C weight value (in percentage) was calculated using the formula: T/C weight %=T weight/C weight×100% where T weight and C weight were the mean tumor body weight of the treatment group and the control group (vehicle group), respectively.
# Q=TGI(A+B))/(TGI(A)+TGI(B)−TGI(A)×TGI(B))
# According to Jin's formula, Q<0.85 indicates antagonistic effect, 0.85≤Q<1.15 indicates additive effect, and Q≥1.15 indicates synergistic effect.
# T-test was performed to compare tumor body weight among groups. One-way ANOVA was performed to compare tumor volume among groups, and when a significant F-statistics (a ratio of treatment variance to the error variance) was obtained, comparisons between groups were carried out with Games-Howell test. All data were analyzed using IBM SPSS software. A P value of less than 0.05 (p<0.05) was considered statistically significant.
smiles,measurement,setting,value
Nc1ncn([C@@H]2O[C@H](CO)[C@@H](O)[C@H]2O)c(=O)n1 [Azacitidine],Macrophage viability (CellTiter-Glo Luminescent Cell Viability Assay),[1]; Cpd 0.002 uM,4076 and 6020 and 5860
same,Macrophage viability (CellTiter-Glo Luminescent Cell Viability Assay),[1]; Cpd 0.008 uM,4648 and 6100 and 6132
same,Macrophage viability (CellTiter-Glo Luminescent Cell Viability Assay),[1]; Cpd 0.04 uM,4792 and 5892 and 6380
same,Macrophage viability (CellTiter-Glo Luminescent Cell Viability Assay),[1]; Cpd 0.2 uM,5160 and 6136 and 6440
same,Macrophage viability (CellTiter-Glo Luminescent Cell Viability Assay),[1]; Cpd 1 uM,5140 and 6108 and 6256
same,Macrophage viability (CellTiter-Glo Luminescent Cell Viability Assay),[1]; Cpd 5 uM,4768 and 6132 and 6032
same,Macrophage viability (CellTiter-Glo Luminescent Cell Viability Assay),[1]; Cpd 25 uM,4560 and 5520 and 5324
same,Macrophage viability (CellTiter-Glo Luminescent Cell Viability Assay),[1]; Cpd 50 uM,4580 and 5420 and 4932
same,toxicity to macrophages,[1]; dose as high as 50 μM,showed toxicity
same,toxicity to macrophages,[1]; dose lower than 10 μM,little toxic
same,Mean Fluorescence Intensity (MFI) CD47,[2]; 0.008 uM,8204
same,Mean Fluorescence Intensity (MFI) CD47,[2]; 0.04 uM,8062
same,Mean Fluorescence Intensity (MFI) CD47,[2]; 0.2 uM,8460
same,Mean Fluorescence Intensity (MFI) CD47,[2]; 1 uM,6638
same,Mean Fluorescence Intensity (MFI) CD47,[2]; 5 uM,5229
same,inhibition of CD47 expression,[2]; dose of 5 μM,~50%
same,Mean Fluorescence Intensity (MFI) Calreticulin,[3]; 0.008 uM,65.8
same,Mean Fluorescence Intensity (MFI) Calreticulin,[3]; 0.04 uM,71.9
same,Mean Fluorescence Intensity (MFI) Calreticulin,[3]; 0.2 uM,88.4
same,Mean Fluorescence Intensity (MFI) Calreticulin,[3]; 1 uM,174
same,Mean Fluorescence Intensity (MFI) Calreticulin,[3]; 5 uM,491
same,increase of the expression level of calreticulin,[3]; dose of 5 μM,about 20 folds
same,antitumor activity compared with the control group,[4]; 1 mg/kg,no obvious antitumor activity
same,antitumor activity compared with the control group,[4]; 2 mg/kg,certain anti-tumor activity
same,"Tumor volume (mm^3), Mean ± SEM","[4]; day 0 (first dosing), 1 mg/kg",70 ± 7 mm^3
same,"Tumor volume (mm^3), Mean ± SEM","[4]; day 0 (first dosing), 2 mg/kg",70 ± 7 mm^3
same,"Tumor volume (mm^3), Mean ± SEM","[4]; day 3, 1 mg/kg",189 ± 11 mm^3
same,"Tumor volume (mm^3), Mean ± SEM","[4]; day 3, 2 mg/kg",161 ± 20 mm^3
same,"Tumor volume (mm^3), Mean ± SEM","[4]; day 7, 1 mg/kg",589 ± 41 mm^3
same,"Tumor volume (mm^3), Mean ± SEM","[4]; day 7, 2 mg/kg",498 ± 82 mm^3
same,"Tumor volume (mm^3), Mean ± SEM","[4]; day 10, 1 mg/kg",1142 ± 86 mm^3
same,"Tumor volume (mm^3), Mean ± SEM","[4]; day 10, 2 mg/kg",773 ± 145 mm^3
same,T/C (%),"[4]; day 12, 1 mg/kg",70.21%
same,TGI (%),"[4]; day 12, 1 mg/kg",30.52%
same,"Tumor volume / Tumor Size (mm^3) at day 12, Mean ± SEM","[4]; day 12, 1 mg/kg",2081±177 mm^3
same,T/C (%),"[4]; day 12, 2 mg/kg",48.98%
same,TGI (%),"[4]; day 12, 2 mg/kg",52.27%
same,"Tumor volume / Tumor Size (mm^3) at day 12, Mean ± SEM","[4]; day 12, 2 mg/kg",1452±253 mm^3
